# Reference: patent US9730940B2, “Purine inhibitors of human phosphatidylinositol 3-kinase delta” (priority 2012, dated 2017)
# Molecular target: PI3K-alpha (Homo sapiens (Human), UniProt P42336)
# Experiment: HTRF PI3K biochemical assay, alpha isoform
# Conditions: ratio PI3K-alpha IC50 value/PI3K-delta IC50 value
# Source text: HTRF PI3K Biochemical Assay to Measure Intrinsic Potency of Compound Inhibitors
# The PI3-Kinase biochemical assays were developed to measure the intrinsic potency and compound dependent inhibition of the alpha, beta, delta, and gamma PI3K isoform enzymes. This assay was developed and further optimized from a kit produced by Upstate (Millipore catalog #33-047) and has been configured for HTS and SAR screening. Briefly, this procedure exploits the exquisite specificity and high affinity binding of enzyme reaction substrate phosphatidyl(3,4,5)triphosphate (PIP3) to the GRP1 pleckstrin homology (PH) domain to generate the signal. In the absence of PIP3, an HTRF (Homogeneous Time-Resolved Fluorescence energy transfer) complex is formed consisting of europium (Eu)-labeled anti-GST, GST tagged GRP1-PH domain, biotin-PIP3 and streptavidin conjugated APC. The native PIP3 produced by PI3-Kinase activity disrupts in a competitive manner the biotin-PIP3 from the PH domain, resulting in the loss of energy transfer (HTRF complex) and a decrease in the signal. The format of this assay is the same for all 4 isoforms of PI3K; the differences lie in the concentration of enzyme used to achieve robust assay window. The alpha, beta, and delta assays are run at 0.5, 1, and 0.3 nM enzymes and the gamma assay is run at 5 nM enzyme. The ATP concentration is 100 uM in the alpha, beta, and delta assays and 50 uM ATP in the gamma assay. All reactions are run at 5 uM PIP2.
# Compounds are serially diluted (3-fold in 100% DMSO) across a 384-well polypropylene source plated from column 3 to column 12 and column 13 to column 22, to yield 10 concentration dose response for each test compound. Columns 1, 2, 23 and 24 contain either only DMSO or pharmacological known control inhibitor.
# The PI3-Kinase biochemical assay was optimized using the HTRF kit provided by Upstate (Millipore). The assay kit contains six reagents: 1) 4× Reaction Buffer; 2) native PIP2 (substrate); 3) Stop (EDTA); 4) Detection Mix A (Streptavidin-APC); 5) Detection Mix B (Eu-labeled Anti-GST plus GST-tagged PH-domain); 6) Detection Mix C.
# PI3Kinase Reaction Buffer is prepared by dilution the stock 1:4 with de-ionized water. […] Enzyme addition and compound pre-incubation are initiated by the addition of 1.25 ul of PI3K (at twice its final concentration) in the 1× reaction buffer to all wells using a BioRaptor. Plates are incubated at room temperature for 15 minutes. Reactions are initiated by addition of 1.25 ul of 2× substrate solution (PIP2 and ATP in 1× reaction buffer) using BioRaptor. Plates are incubated in humidified chamber at room temperature for one hour. Reactions are quenched by addition of 0.625 uL of stop solution to all wells using the BioRaptor. The quenched reactions are then processed to detect product formation by adding 0.625 uL of Detection Solution to all wells using the BioRaptor (Detection mix C, Detection Mix A, and Detection Mix B combined together in an 18:1:1 ratio prepared 2 hours prior to use).
# The loss of the HTRF signal is due to the displacement of biotinylated-PIP3 from the PH domain by the PI3K-dependent conversion of PIP2 to PIP3. This loss of signal is nonlinear with respect to both increasing product and time. This non-linear detection will impact accuracy of IC50 calculations; therefore, there is a need for a correction factor to obtain more accurate IC50 values. This correction is derived from a PIP3 standard curve run in a separate assay plate. All data were calculated using the ratio of acceptor (APC) to donor (Europium) fluorescence in each well of the assay plate. […] An IC50 was then calculated fitting the % inhibition data to the equation: % inhibition=min+(Max−min)/1+([inhibitor]/IC50)^n) where min is the % inhibition […], max is the signal in DMSO control, and n is the Hill slope.
# Chain of PI3K-alpha (P42336 whole entry, looked up, canonical isoform): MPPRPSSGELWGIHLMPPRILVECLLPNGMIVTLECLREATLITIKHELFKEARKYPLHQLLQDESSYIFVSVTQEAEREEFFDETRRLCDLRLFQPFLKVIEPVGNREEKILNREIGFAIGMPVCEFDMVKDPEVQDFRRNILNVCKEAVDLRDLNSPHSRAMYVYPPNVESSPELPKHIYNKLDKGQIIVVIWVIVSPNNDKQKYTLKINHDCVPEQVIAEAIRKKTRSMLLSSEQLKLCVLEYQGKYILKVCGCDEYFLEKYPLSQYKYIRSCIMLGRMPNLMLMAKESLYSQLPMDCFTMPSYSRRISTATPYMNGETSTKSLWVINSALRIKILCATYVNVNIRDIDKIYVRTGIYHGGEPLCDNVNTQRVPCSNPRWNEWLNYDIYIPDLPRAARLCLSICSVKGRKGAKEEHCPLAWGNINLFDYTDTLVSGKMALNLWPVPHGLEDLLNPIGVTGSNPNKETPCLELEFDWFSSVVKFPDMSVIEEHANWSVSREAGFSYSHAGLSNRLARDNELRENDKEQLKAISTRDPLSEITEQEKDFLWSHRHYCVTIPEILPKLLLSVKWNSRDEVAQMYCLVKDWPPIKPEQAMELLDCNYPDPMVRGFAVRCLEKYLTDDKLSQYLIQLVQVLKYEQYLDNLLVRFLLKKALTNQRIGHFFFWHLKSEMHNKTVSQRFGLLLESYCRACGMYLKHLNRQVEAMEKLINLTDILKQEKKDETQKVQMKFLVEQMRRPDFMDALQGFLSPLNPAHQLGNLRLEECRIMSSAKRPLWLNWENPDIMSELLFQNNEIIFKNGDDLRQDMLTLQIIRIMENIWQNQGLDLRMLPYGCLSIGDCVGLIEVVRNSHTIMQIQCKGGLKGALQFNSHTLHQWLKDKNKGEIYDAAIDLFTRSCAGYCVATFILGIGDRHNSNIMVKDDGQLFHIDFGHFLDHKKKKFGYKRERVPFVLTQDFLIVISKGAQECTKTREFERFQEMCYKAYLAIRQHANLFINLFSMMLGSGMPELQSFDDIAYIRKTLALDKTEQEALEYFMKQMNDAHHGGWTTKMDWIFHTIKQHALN
# Chain of PI3K-alpha (P27986 whole entry partner, looked up, canonical isoform): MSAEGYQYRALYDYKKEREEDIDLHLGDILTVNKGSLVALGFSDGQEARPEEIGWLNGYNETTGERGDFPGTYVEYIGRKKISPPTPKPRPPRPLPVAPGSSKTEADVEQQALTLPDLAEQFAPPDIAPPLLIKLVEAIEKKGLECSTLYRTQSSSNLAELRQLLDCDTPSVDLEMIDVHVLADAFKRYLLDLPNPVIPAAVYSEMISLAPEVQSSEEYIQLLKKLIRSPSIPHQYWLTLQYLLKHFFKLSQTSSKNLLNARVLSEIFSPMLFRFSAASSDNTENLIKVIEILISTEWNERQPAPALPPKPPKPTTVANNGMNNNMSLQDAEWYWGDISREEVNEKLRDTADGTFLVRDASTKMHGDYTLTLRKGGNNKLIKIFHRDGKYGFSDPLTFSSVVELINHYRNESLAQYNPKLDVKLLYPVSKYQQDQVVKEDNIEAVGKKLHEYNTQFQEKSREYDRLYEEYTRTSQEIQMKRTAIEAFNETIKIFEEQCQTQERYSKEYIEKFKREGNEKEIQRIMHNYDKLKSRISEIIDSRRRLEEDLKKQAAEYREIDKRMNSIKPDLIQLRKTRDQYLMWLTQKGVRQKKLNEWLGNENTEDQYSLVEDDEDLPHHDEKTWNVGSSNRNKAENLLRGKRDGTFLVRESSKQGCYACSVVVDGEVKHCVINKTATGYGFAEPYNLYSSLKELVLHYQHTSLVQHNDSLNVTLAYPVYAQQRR
row,SMILES,Relative Selectivity versus PI3Kalpha
1,"CCc1oncc1C(=O)N1CC[C@H](Oc2ncnc3c2nc(-c2cnn(CC)c2C)n3C)C1 [Compound 2-68, 6-({(3S)-1-[(5-ethylisoxazol-4-yl)carbonyl]pyrrolidin-3-yl}oxy)-8-(1-ethyl-5-methyl-1H-pyrazol-4-yl)-9-methyl-9H-purine]",>10
2,"CCC(=O)N1CC[C@H](Oc2ncnc3c2nc(CC(C)C)n3CC)C1 [Compound 14-3, 9-ethyl-8-(2-methylpropyl)-6-{[(3S)-1-propanoylpyrrolidin-3-yl]oxy}-9H-purine]",>10
3,"CCC(=O)N1CC[C@H](Oc2ncnc3c2nc(-c2cnn(-c4ccccc4)c2C)n3C)C1 [Compound 3-12, 9-methyl-8-(5-methyl-1-phenyl-1H-pyrazol-4-yl)-6-{[(3S)-1-propanoylpyrrolidin-3-yl]oxy}-9H-purine]",>10
4,"CCn1c(-c2cnc(OC)c(NS(C)(=O)=O)c2)nc2c(O[C@H]3CCN(C(=O)C4CC4)C3)ncnc21 [Compound 3-41, N-[5-(6-{[(3S)-1-(cyclopropylcarbonyl)pyrrolidin-3-yl]oxy}-9-ethyl-9H-purin-8-yl)-2-methoxypyridin-3-yl]methanesulfonamide]",>10
5,"CCn1ncc(-c2nc3c(O[C@@H]4CCCN(C(=O)OC(C)(C)C)C4)ncnc3n2C)c1C [Compound 1-42, (R)-tert-butyl 3-((8-(1-ethyl-5-methyl-1H-pyrazol-4-yl)-9-methyl-9H-purin-6-yl)oxy)piperidine-1-carboxylate]",>2
6,"CCn1c(-c2ccc(C(F)(F)F)cc2)nc2c(O[C@H]3CCN(C(=O)C4CC4)C3)ncnc21 [Compound 2-146, 6-{[(3S)-1-(cyclopropylcarbonyl)pyrrolidin-3-yl]oxy}-9-ethyl-8-[4-(trifluoromethyl)phenyl]-9H-purine]",>10
7,"CCn1c(-c2cnc(N)c(C(F)(F)F)c2)nc2c(O[C@H]3CCN(C(=O)C4CC4)C3)ncnc21 [Compound 3-44, 5-(6-{[(3S)-1-(cyclopropylcarbonyl)pyrrolidin-3-yl]oxy}-9-ethyl-9H-purin-8-yl)-3-(trifluoromethyl)pyridin-2-amine]",>10
8,"CCn1ncc(-c2nc3c(O[C@H]4CCN(C(C)c5ccccc5)C4)ncnc3n2C)c1C (stereo partly drawn) [Compound 6-1, 8-(1-ethyl-5-methyl-1H-pyrazol-4-yl)-9-methyl-6-{[(3S)-1-(1-phenylethyl)pyrrolidin-3-yl]oxy}-9H-purine]",>10
9,"CCn1ncc(-c2nc3c(O[C@H]4CCN(C(=O)C(C)C)C4)ncnc3n2C)c1C [Compound 2-91, (S)-1-(3-((8-(1-ethyl-5-methyl-1H-pyrazol-4-yl)-9-methyl-9H-purin-6-yl)oxy)pyrrolidin-1-yl)-2-methylpropan-1-one]",>10
10,"CCn1ncc(-c2nc3c(O[C@H]4CCN(C(=O)C5(C)CCOCC5)C4)ncnc3n2C)c1C [Compound 2-10, 8-(1-ethyl-5-methyl-1H-pyrazol-4-yl)-9-methyl-6-({(3S)-1-[(4-methyltetrahydro-2H-pyran-4-yl)carbonyl]pyrrolidin-3-yl}oxy)-9H-purine]",>10
11,"CCC(=O)N1CCC(Oc2ncnc3c2nc(-c2cnn(CC)c2C)n3C)CC1 [Compound 2-14, 1-(4-((8-(1-ethyl-5-methyl-1H-pyrazol-4-yl)-9-methyl-9H-purin-6-yl)oxy)piperidin-1-yl)propan-1-one]",1
12,"Cn1c(-c2cnc(C(C)(C)C)s2)nc2c(O[C@H]3CCN(C(=O)OC(C)(C)C)C3)ncnc21 [Compound 1-39, tert-butyl (3S)-3-{[8-(2-tert-butyl-1,3-thiazol-5-yl)-9-methyl-9H-purin-6-yl]oxy}pyrrolidine-1-carboxylate]",>10
13,"CCn1c(-c2cnc(C)nc2)nc2c(OC3CN(C(=O)C4CC4)CC3C(F)F)ncnc21 (single isomer, unassigned) [Compound 3-66, cyclopropyl([(3R,4S) or (3S,4R)]-3-(difluoromethyl)-4-((9-ethyl-8-(2-methylpyrimidin-5-yl)-9H-purin-6-yl)oxy)pyrrolidin-1-yl)methanone]",>10
14,"CCn1ncc(-c2nc3c(O[C@H]4CCN(C(=O)c5ccno5)C4)ncnc3n2C)c1C [Compound 2-32, 8-(1-ethyl-5-methyl-1H-pyrazol-4-yl)-6-{[(3S)-1-(isoxazol-5-ylcarbonyl)pyrrolidin-3-yl]oxy}-9-methyl-9H-purine]",>10
15,"CCn1ncc(-c2nc3c(O[C@H]4CCN(C(=O)c5cccn5C)C4)ncnc3n2C)c1C [Compound 2-67, 8-(1-ethyl-5-methyl-1H-pyrazol-4-yl)-9-methyl-6-({(3S)-1-[(1-methyl-1H-pyrrol-2-yl)carbonyl]pyrrolidin-3-yl}oxy)-9H-purine]",>10
16,"CCn1c(-c2cnc(C)nc2)nc2c(OC3CN(C(=O)OC(C)(C)C)CC3(F)F)ncnc21 (stereo not shown) [Compound 1-47, (4S and 4R)-tert-butyl 4-{[9-ethyl-8-(2-methylpyrimidin-5-yl)-9H-purin-6-yl]oxy}-3,3-difluoropyrrolidine-1-carboxylate]",>10
17,"CCOC(=O)N1CC[C@H](Oc2ncnc3c2nc(-c2cnc(C)nc2)n3CC)C1 [Compound 1-43, (S)-ethyl 3-{[9-ethyl-8-(2-methylpyrimidin-5-yl)-9H-purin-6-yl]oxy}pyrrolidine-1-carboxylate]",>10
18,"CCC(=O)N1CC[C@H](Oc2ncnc3c2nc(C2CC2)n3C)C1 [Compound 14-2, 8-cyclopropyl-9-methyl-6-{[(3S)-1-propanoylpyrrolidin-3-yl]oxy}-9H-purine]",>10
19,"CCn1ncc(-c2nc3c(O[C@H]4CCN(C(=O)c5[nH]ncc5C)C4)ncnc3n2C)c1C [Compound 2-48, 8-(1-ethyl-5-methyl-1H-pyrazol-4-yl)-9-methyl-6-({(3S)-1-[(4-methyl-1H-pyrazol-5-yl)carbonyl]pyrrolidin-3-yl}oxy)-9H-purine]",>10
20,"CCn1c(N(C)CCOC)nc2c(O[C@H]3CCN(C(=O)OC(C)(C)C)C3)ncnc21 [Compound 13-6, tert-butyl (3S)-3-({9-ethyl-8-[(2-methoxyethyl)(methyl)amino]-9H-purin-6-yl}oxy)pyrrolidine-1-carboxylate]",>10
21,"CCn1ncc(-c2nc3c(O[C@H]4CCN(C(=O)NC(C)(C)CC(C)(C)C)C4)ncnc3n2C)c1C [Compound 5-4, (3S)-3-{[8-(1-ethyl-5-methyl-1H-pyrazol-4-yl)-9-methyl-9H-purin-6-yl]oxy}-N-(1,1,3,3-tetramethylbutyl)pyrrolidine-1-carboxamide]",>10
22,"CCn1c(-c2cnc(C)nc2)nc2c(OC3CN(C(=O)OC(C)(C)C)CC3O)ncnc21 [Compound 1-46, [(3S,4S) and (3R,4R)]-tert-butyl 3-{[9-ethyl-8-(2-methylpyrimidin-5-yl)-9H-purin-6-yl]oxy}-4-hydroxypyrrolidine-1-carboxylate]",>10
